Measurements published in PMC7432809, “Antimicrobial Activity of Small Synthetic Peptides Based on the Marine Peptide Turgencin A: Prediction of Antimicrobial Peptide Sequences in a Natural Peptide and Strategy for Optimization of Potency” (International Journal of Molecular Sciences, 2020).
Where no end group is shown, it is not given here.

What was measured:
E. coli K12 (pCGLS-11) = assay: Real-time bacterial cell viability assay (lux operon); assay type: cell-based, Escherichia coli; conditions: lowest concentration tested
Source text: (§1) A real-time cell viability assay was used to investigate the bactericidal effect of StAMP-6-10. B. subtilis 168 contains a chromosomally integrated lux operon, and E. coli K12 a plasmid-borne lux operon. Both strains emit light as long as they have an active metabolism. If a compound reduces the metabolic activity of the bacteria it will reduce the viability of the cells. […] The decrease in light emission caused by StAMP-8-10 shown in both assays confirmed that these three peptides killed both strains at 50 µg/mL, but not as rapidly as the control chlorhexidine. The same activity observed for StAMP-8-10 in the membrane integrity assay was also observed in both viability assays (Figures S7–S12). […] Only at the lowest concentration tested (0.8 µg/mL), was there no observed membrane activity for these assays.
(§2) A real-time cell viability assay (modified from) was performed using B. subtilis 168 carrying an optimized luxABCDE operon controlled by the promoter Pveg, and E. coli K12 carrying the plasmid pCGLS-11 [53] with the luxCDABE operon from Xenorhabdus luminescence. The procedure was conducted as previously described. The bacteria (~5 × 10^7 bacteria/mL) were subjected to ranging concentrations of StAMP-6-10 (50–3.1 µg/mL) and the positive control to chlorhexidine acetate (assay concentrations 100–1.6 µg/mL). MQ-H2O was used as a negative control. […]

B. subtilis 168 = assay: as above; assay type: cell-based, Bacillus subtilis; conditions: lowest concentration tested
Source text: as §1, §2

E. coli K12 (pCSS962) = assay: Real-time membrane integrity assay (luciferase, D-luciferin); assay type: cell-based, Escherichia coli; conditions: lowest concentration tested
Source text: (§3) Based on the results from antibacterial screening and the bacterial killing experiment, StAMP-6-10 were further studied for their immediate effect on the membrane integrity and viability on B. subtilis 168 and E. coli K12. In the integrity assay, both bacteria are carrying the luciferase lucGR gene within the plasmid pCSS962. When a compound disrupts the membrane, externally added D-luciferin can diffuse into the cells and function as a substrate for the luciferase enzyme. This, in turn, causes the emission of light as relative luminescence units (RLU), a signal whose strength is relative to the degree of membrane disruption in living cells. If the test compound affects the membrane sufficiently to cause bacterial death, the RLU signal will increase until the bacterial ATP storage is empty. At this time, the RLU signal will decrease in line with the decreasing ATP concentrations, as the enzymatic reaction gradually stops. […] Following membrane disruption, the RLU will reach its peak and start to decrease due to reduced cell numbers. In the assay setup used herein, RLU was measured over a period of 3 min. The short time period was selected as many membrane disruptive compounds usually affect the bacterial membranes immediately. […]

[1] = test system: B. subtilis 168 (pCSS962); assay: as above; assay type: cell-based, Bacillus subtilis; conditions: lowest concentration tested
Source text: as §3

[2] = test system: Escherichia coli (ATCC 25922); assay: microbe, parasite or virus in culture; assay type: cell-based; conditions: ATCC 25922, 24 h
Experimental: (§4) Two strains of G- bacteria, P. aeruginosa (Pa, ATCC 27853) and E. coli (Ec, ATCC 25922), were also used. Cultures stored at -80 °C in glycerol were transferred to Müller–Hinton plates (MH, Difco Laboratories, Detroit, MI, USA) and incubated for 24 h at 35 °C. Colonies of each strain were transferred to 5 mL liquid MH medium and left shaking (600 rpm) at room temperature overnight. An aliquot of actively growing bacteria (20 µL) was inoculated in 5 mL MH medium and left shaking for 2 h at room temperature. In order to have a sensitive bioassay, the bacterial cultures were diluted with medium to only 2.5–3 × 10^4 bacteria/mL and an aliquot of 50 µL was added to each well in 96 microwell plates (Thermo Fisher Scientific, Roskilde, Denmark) preloaded with peptide solution (50 µL). The antibacterial assays were performed as previously described. The microtiter plates were incubated for 24 h at 35 °C with optical density (595 nm) recorded every hour using an Envision 2103 multilabel reader, controlled by a Wallac Envision manager (PerkinElmer, Waltham, MA, USA). The minimum inhibitory concentration (MIC) was defined as the sample concentration showing an optical density less than 10% of the negative (growth) control, consisting of bacteria and MQ-H2O. Oxytetracycline (concentrations ranging from 20–0.02 µg/mL, Sigma-Aldrich) and indolicidin (concentration ranging from 200–0.2 µg/mL, Sigma-Aldrich) served as a positive (inhibition) control. The synthetic peptides were tested for antibacterial activity in concentrations ranging from 250 to 0.5 µg/mL in two-fold dilutions. All tests were performed in triplicates.

[3] = test system: Pseudomonas aeruginosa (ATCC 27853); assay: microbe, parasite or virus in culture; assay type: cell-based; conditions: ATCC 27853, 24 h
Experimental: as §4

Micrococcus luteus = assay: microbe, parasite or virus in culture; assay type: cell-based; conditions: 24 h
Experimental: (§5) The synthesized peptides were screened for antibacterial activity against five strains of G+ bacteria: B. subtilis (Bs, ATCC 23857), C. glutamicum (Cg, ATCC 13032), S. aureus (Sa, ATCC 9144), Micrococcus luteus (Ml), B. megaterium (Bm) (the last two were obtained from professor Olaf B. Styrvold, UiT The Arctic University of Norway).
as §4

[4] = test system: Bacillus subtilis (ATCC 23857); assay: microbe, parasite or virus in culture; assay type: cell-based; conditions: ATCC 23857, 24 h
Experimental: as §5, §4

Bacillus megaterium = assay: microbe, parasite or virus in culture; assay type: cell-based; conditions: Bacillus, 24 h
Experimental: as §5, §4

[5] = test system: Corynebacterium glutamicum (ATCC 13032); assay: microbe, parasite or virus in culture; assay type: cell-based; conditions: ATCC 13032, 24 h
Experimental: as §5, §4

[6] = test system: Staphylococcus aureus (ATCC 9144); assay: microbe, parasite or virus in culture; assay type: cell-based; conditions: ATCC 9144, 24 h
Experimental: as §5, §4

Aureobasidium pullulans = assay: microbe, parasite or virus in culture; assay type: cell-based; conditions: 48 h
Experimental: (§6) StAMP-1–11 were screened for antifungal activity against C. albicans (Ca, ATCC 10231), A. pullulans (Ap) and Rhodotorula sp. (Rh) (the last two were obtained from professor Arne Tronsmo, The Norwegian University of Life Sciences, Ås, Norway). The antifungal assay was performed as previously described with a few modifications. Briefly, fungal spores were dissolved in potato dextrose broth (Difco Laboratories) with 2% D(+)-glucose (Merck, Darmstadt, Germany) to a concentration of 4 × 10^5 spores/mL. The spores (50 µL) were inoculated on 96 microwell plates (Thermo Fisher Scientific) containing the synthetic peptides (50 µL) and controls (water or antibiotic). The peptides were diluted in MQ-H2O at final concentrations ranging from 250–3.9 µg/mL in two-fold serial dilutions. Triclosan (Sigma-Aldrich, Steinheim, Germany) was used as a positive (antifungal) control (32–0.25 µg/mL), and MQ-H2O as a negative (growth) control. Cultures were grown in room temperature for 24 h (Ca) and 48 h (Ap and Rh). Growth inhibition was determined by measuring OD values at 600 nm by a microplate reader (Synergy H1 Hybrid Multi-Mode Reader, BioTek, Winooski, VT, USA). […] All experiments were done in triplicate.

[7] = test system: Candida albicans (ATCC 10231); assay: microbe, parasite or virus in culture; assay type: cell-based; conditions: ATCC 10231, 24 h
Experimental: as §6

Rhodotorula sp. = assay: microbe, parasite or virus in culture; assay type: cell-based; conditions: 48 h
Experimental: as §6

G- strains = assay: Antibacterial assay, MIC range over G- strains; assay type: cell-based; conditions: range over the two G- test strains
Experimental: as §5
as §4, with “The minimum inhibitory concentration (MIC) was defined as the sample concentration showing an optical density less than 10% of the negative (growth) control, consisting of bacteria and MQ-H2O. Oxytetracycline (concentrations ranging from 20–0.02 µg/mL, Sigma-Aldrich) and indolicidin (concentration ranging from 200–0.2 µg/mL, Sigma-Aldrich) served as a positive (inhibition) control. The synthetic peptides were tested for antibacterial activity in concentrations ranging from 250 to 0.5 µg/mL in two-fold dilutions. All tests were performed in triplicates.” left out

G+ strains = assay: Antibacterial assay, MIC range over G+ strains; assay type: cell-based; conditions: range over the five G+ test strains
Experimental: as §5
as §4, with “The minimum inhibitory concentration (MIC) was defined as the sample concentration showing an optical density less than 10% of the negative (growth) control, consisting of bacteria and MQ-H2O. Oxytetracycline (concentrations ranging from 20–0.02 µg/mL, Sigma-Aldrich) and indolicidin (concentration ranging from 200–0.2 µg/mL, Sigma-Aldrich) served as a positive (inhibition) control. The synthetic peptides were tested for antibacterial activity in concentrations ranging from 250 to 0.5 µg/mL in two-fold dilutions. All tests were performed in triplicates.” left out

three fungal strains = assay type: cell-based; conditions: 24 h
Experimental: as §6, with “Cultures were grown in room temperature for 24 h (Ca) and 48 h (Ap and Rh).” left out

[8] = test system: all seven bacterial test strains; assay type: cell-based; conditions: 24 h
Experimental: as §5
as §4, with “The minimum inhibitory concentration (MIC) was defined as the sample concentration showing an optical density less than 10% of the negative (growth) control, consisting of bacteria and MQ-H2O. Oxytetracycline (concentrations ranging from 20–0.02 µg/mL, Sigma-Aldrich) and indolicidin (concentration ranging from 200–0.2 µg/mL, Sigma-Aldrich) served as a positive (inhibition) control. The synthetic peptides were tested for antibacterial activity in concentrations ranging from 250 to 0.5 µg/mL in two-fold dilutions. All tests were performed in triplicates.” left out

Compound	concentration with no observed membrane activity (E. coli K12 (pCGLS-11))	concentration with no observed membrane activity (B. subtilis 168)	concentration with no observed membrane activity (E. coli K12 (pCSS962))	concentration with no observed membrane activity [1]	Antimicrobial Activity (MIC) Ec [2]	Antimicrobial Activity (MIC) Pa [3]	Antimicrobial Activity (MIC) Ml (Micrococcus luteus)	Antimicrobial Activity (MIC) Bs [4]	Antimicrobial Activity (MIC) Bm (Bacillus megaterium)	Antimicrobial Activity (MIC) Cg [5]	Antimicrobial Activity (MIC) Sa [6]	Antimicrobial Activity (MIC) Ap (Aureobasidium pullulans)	Antimicrobial Activity (MIC) Ca [7]	Antimicrobial Activity (MIC) Rh (Rhodotorula sp.)	MIC values, range against G- strains (G- strains)	MIC values, range against G+ strains (G+ strains)	MIC, range against the three fungal strains (three fungal strains)	MIC values, range against all seven bacterial test strains [8]
[H]/N=C(\N/C(=N/[H])NCCCCCCNC(=N)NC(=N)Nc1ccc(Cl)cc1)Nc1ccc(Cl)cc1 [Chlorhexidine]	0.8 µg/mL	0.8 µg/mL	0.8 µg/mL	0.8 µg/mL														
GKKPWWWKAK-NH2 [StAMP-7]					31.3 µg/mL	250 µg/mL	31.3 µg/mL	3.9 µg/mL	1.0 µg/mL	2.0 µg/mL	125 µg/mL	15.6 µg/mL	31.3 µg/mL	15.6 µg/mL	31.3 to 250 µg/mL	1.0 to 125 µg/mL		
GKKWWWWKAK-NH2 [StAMP-8]					62.5 µg/mL	125 µg/mL	15.6 µg/mL	7.8 µg/mL	3.9 µg/mL	7.8 µg/mL	125 µg/mL	7.8 µg/mL	15.6 µg/mL	15.6 µg/mL			7.8 to 15.6 µg/mL	
GRRPWWWRAR-NH2 [StAMP-9]					7.8 µg/mL	31.3 µg/mL	3.9 µg/mL	3.9 µg/mL	1.0 µg/mL	2.0 µg/mL	7.8 µg/mL	31.3 µg/mL	31.3 µg/mL	15.6 µg/mL				1.0 to 31.3 µg/mL
